In patent US20220227815A1, “COMPOSITIONS AND METHODS USEFUL IN TREATING BRAIN DISEASES” (University of Kansas, priority 2019, published 2022):
Where “and” joins values, the source holds several entries; their conditions need not be identical. Equal entries are not always repeated. Entries after “also recorded” stand apart in the source; their conditions may differ. Non-standard residues stand in square brackets, D forms with d. Residues, ends and D or L forms follow the SMILES beside them. ξ: configuration not given here. Thr(3ξ) = CC(O)[C@H](N)C(=O)O

Key:
[1] = system: blood-brain barrier (BBB); test: In vivo brain delivery of IRdye800CW-lysozyme (15 kDa); parameters: species or system C57BL/6 mice; conditions: for amount of lysozyme in the brain: IRdye800CW-lysozyme 54 nmol/kg i.v. alone or with 13 μmol/kg peptide, C57BL/6 mice
Method: Preparation of Stock and Standard Curves. The stock solution for IRDye800CW protein (i.e., lysozyme, 70 μg/mL) was prepared and stored at −80° C. The stock solution was later diluted with PBS to make the required standard solutions. To produce a standard calibration curve, 200 μL of blank brain homogenates was spiked with 10 μL standard solutions of various concentrations to yield a linear range from 0.5 to 50 ng/mL. The same method was employed for the sample's quality control (QC).
(§1) The BBB modulatory activities of ADTC5 and HAV6 to enhance brain delivery of IRdyeR800CW-labeled lysozyme, albumin, IgG mAb, and fibronectin were compared in C57BL/6 mice. The proteins with or without 13 μmol/kg HAV6 or ADTC5 were administered via tail vein injection. For lysozyme, the delivered doses were 21.6 and 54 nmol/kg. For albumin, IgG mAb, and fibronectin, the dose used was 21.6 nmol/kg. Fifteen minutes after IgG mAb administration with or without a peptide of the present technology, the animals were sacrificed and PBS with 0.5% Tween-20 was administered for cardiac perfusion to remove the remaining protein in the BBB microvessels. The brain and other organs such as lung, heart, spleen, liver and kidney were harvested and rinsed with PBS. Protein depositions in the brain and other organs were quantified by NIRF imaging using an Odyssey CLx NIRF scanner.
(§2) A second quantification method was done using brain homogenates. In this case, the brains were homogenized in 2.0 mL PBS by mechanical disruption and 200 μL of homogenized brain (n=8) was aliquoted to a 96-well plate followed by quantification using the Odyssey CLx scanner. The signal intensity was compared to calibration curve and normalized to brain weight and homogenate volume.
(§3) Brain Perfusion. After euthanasia using CO2 chamber, mice were immediately subjected to cervical dislocation followed by removal of IRdye800CW-labeled protein from the brain capillaries using perfusion solution. In this case, a solution containing PBS with 0.2% Tween-20 was transcardially perfused to remove the remaining protein molecules in the brain endothelial microvessels. After perfusion, the brain was removed from the skull and subjected to capillary depletion.

[2] = system: blood-brain barrier (BBB); test: In vivo brain delivery of IRdye800CW-albumin (65 kDa); conditions: IRdye800CW-albumin 21.6 nmol/kg i.v. alone or with 13 μmol/kg peptide, C57BL/6 mice
Method: as §1, §2, §3

[3] = Peripheral organ deposition of IRdye800CW-labeled proteins by NIRF imaging; type: in vivo, C57BL/6 mice; conditions: for IgG mAb deposition in other organs (liver, kidney, heart, spleen, lungs) compared to control: IgG mAb 21.6 nmol/kg + 13 μmol/kg peptide i.v., NIRF signal intensity, n=3
Method: (§4) The activity of each peptide in enhancing blood-brain barrier (BBB) penetration was evaluated by delivering IRdye800CW donkey anti-goat IgG mAb in C57BL/6 mice; the amounts of mAb in the brain were determined using NIRF imaging. Each group contained 3 mice per group (n=3) with a mixture of male and female mice, selected randomly for each arm of the study. The injection solution was prepared by adding 600 μL PBS into 0.5 mg lyophilized IgG mAb; then, approximately 1.5 mg lyophilized peptide was added into the mixture yielding the injectable formulation. A 100 μL solution of a mixture containing IgG mAb (21.6 nmol/kg) along with 13 μmol/kg peptide of the present technology was administered via tail vein. As a control, 100 μL of IgG mAb alone was administered via i.v. route. After the delivered molecules had been circulating for 15 min, the mice were sacrificed; then, a mixture of PBS with 0.5% Tween20 was administered for cardiac perfusion to remove the blood and […] molecules into the brain microvessels. The brain and other organs such as lung, heart, spleen, liver, and kidney were harvested and rinsed with PBS. The isolated organs were scanned with Odyssey® CLx for mAb quantification.
as §1

[4] = system: blood-brain barrier (BBB); test: In vivo brain delivery of IRdye800CW-IgG mAb, NIRF quantification in brain homogenates; conditions: C57BL/6 mice; for average amount of IgG mAb in the brain: IRdye800CW-IgG mAb 21.6 nmol/kg i.v. alone or with 13 μmol/kg peptide, 15 min circulation, n=3; for brain delivery of IgG mAb compared to control (IgG mAb alone): IgG mAb 21.6 nmol/kg + 13 μmol/kg peptide i.v.
Method: as §4
The brain deposition of IgG mAb was also quantified by NIRF imaging in brain homogenates. The isolated brains were mechanically homogenized in 2.0 mL of PBS. To make the standard solutions, IRDye800CW IgG mAb stock solution (70 μg/mL) was prepared; it was then diluted with various amounts of PBS to make six different mAb concentrations. To generate a calibration curve, the brain homogenate (200 μL) was aliquoted out to a 96-well plate. 10 μL of each concentration of IgG mAb was added to three different wells of blank brain homogenates. The standard spiked homogenates were at a range of 10-200 ng/mL IgG mAb in brain homogenate. The wells were scanned using the Odyssey® CLx scanner, and the signal intensities vs. concentrations of mAb per gram of brain were used to generate a calibration curve.
as §1, §2

[5] = system: blood-brain barrier (BBB); test: In vivo brain delivery of IRdye800CW-fibronectin (220 kDa); parameters: species or system C57BL/6 mice; conditions: IRdye800CW-fibronectin 21.6 nmol/kg i.v. alone or with ADTC5 13 μmol/kg
Method: as §1, §2, §3

[6] = albumin 21.6 nmol/kg with 13 μmol/kg peptide, NIRF

## Lysozyme [reference compound]
[1]
  amount of lysozyme in the brain: 0 ± 0 pmol/g brain
[1]; listed as lysozyme
  amount of lysozyme in the brain: below the detection limits

## Albumin [reference compound]
[2]
  amount of albumin in the brain: 11.8 ± 1.0 pmol/g brain
[2]; listed as albumin
  amount of albumin in the brain: 11.8±1.0 pmol/g brain

## CC(C)[C@@H]1NC(=O)[C@H](C)NC(=O)[C@H](Cc2c[nH]cn2)NC(=O)[C@H](CO)NC(=O)[C@H](CO)NC1=O [HAVN2, cyclo(1,5)SHAVS] (cyclo(AVSSH))
[3]
  IgG mAb deposition in other organs (liver, kidney, heart, spleen, lungs) compared to control: no significant difference
[4]
  average amount of IgG mAb in the brain: 8.8±0.6 pmol/g brain
  brain delivery of IgG mAb compared to control (IgG mAb alone): significantly enhanced; also recorded: significant difference

## CC(C)[C@@H]1NC(=O)[C@H](C)NC(=O)[C@H](Cc2c[nH]cn2)NC(=O)[C@H](CO)NC(=O)[C@H](CO)NC(=O)[C@H](CO)NC1=O [HAVN1, cyclo(1,6)SHAVSS] (cyclo(AVSSSH))
[3]
  IgG mAb deposition in other organs (liver, kidney, heart, spleen, lungs) compared to control: no significant difference
[4]
  average amount of IgG mAb in the brain: 8.6±0.5 pmol/g brain
  brain delivery of IgG mAb compared to control (IgG mAb alone): significantly enhanced; also recorded: significant difference

## CC(=O)N[C@@H](CO)C(=O)N[C@@H](Cc1c[nH]cn1)C(=O)N[C@@H](C)C(=O)N[C@H](C(=O)N[C@@H](CO)C(=O)N[C@@H](CO)C(N)=O)C(C)C [HAV6, acetyl-SHAVSS-NH2] (Ac-SHAVSS-NH2)
[1]
  amount of lysozyme in the brain: 8.3±2.5 pmol/g brain
[1]; lysozyme 21.6 nmol/kg with 13 μmol/kg peptide
  brain delivery of lysozyme compared to lysozyme alone: no significant improvement
[3]
  IgG mAb deposition in other organs (liver, kidney, heart, spleen, lungs) compared to control: no significant difference
[3]; IgG mAb 21.6 nmol/kg with 13 μmol/kg peptide, compared to control
  distribution of mAb into liver: about the same
[3]; [6]
  deposition of albumin in the spleen compared to control: enhanced
  distribution of albumin into the liver compared to control: significantly enhanced
[3]; lysozyme 54 nmol/kg with 13 μmol/kg peptide, NIRF
  lysozyme deposition in the kidney: followed by the HAV6-treated group
[2]
  amount of albumin in the brain: 15.5±3.1 pmol/g brain
[4]
  average amount of IgG mAb in the brain: 3.4±0.4 pmol/g brain and 3.42±0.5 pmol/g brain and 3.4 ± 0.5 pmol/g brain
  brain delivery of IgG mAb compared to control (IgG mAb alone): did not enhance; also recorded: not able to deliver mAb

## CC(C)[C@@H]1NC(=O)[C@H](C)NC(=O)[C@H](Cc2c[nH]cn2)NC(=O)[C@H](CO)NC(=O)[C@H](C(C)C)NC(=O)[C@@H]2CCCN2C(=O)[C@@H]2CCCN2C(=O)[C@H](C(C)O)NC1=O (stereo partly drawn) (cyclo(AV[Thr(3ξ)]PPVSH))
[3]
  IgG mAb deposition in other organs (liver, kidney, heart, spleen, lungs) compared to control: significant increases in deposition of IgG mAb in liver, kidney, spleen, and lungs; also recorded: significant differences in the IgG mAb signal in lung, kidney, spleen, and liver
[4]
  average amount of IgG mAb in the brain: 15.7±0.8 pmol/g brain
  brain delivery of IgG mAb compared to control (IgG mAb alone): significantly better than in the PBS control; also recorded: significant difference

## CC(=O)N[C@H](C(=O)N1CCC[C@H]1C(=O)N1CCC[C@H]1C(=O)N[C@H](C(=O)N[C@@H](CO)C(=O)N[C@@H](Cc1c[nH]cn1)C(=O)N[C@@H](C)C(=O)N[C@H](C(N)=O)C(C)C)C(C)C)C(C)O (stereo partly drawn) [linear ADTHAV]
[3]
  IgG mAb deposition in other organs (liver, kidney, heart, spleen, lungs) compared to control: significant effects on the distribution of IgG mAb in the heart and kidney; also recorded: significance differences in the IgG mAb signal intensities for kidney and heart
[4]
  average amount of IgG mAb in the brain: 11.8±0.5 pmol/g brain
  brain delivery of IgG mAb compared to control (IgG mAb alone): significantly better than in the PBS control; also recorded: significant difference

## fibronectin [reference compound]
[5]
  NIRF signal of fibronectin in brain homogenates: 33.026±2.080 ×10^3 A.U.
